Where “and” joins values, the source holds several entries; their conditions need not be identical. Equal values may be shown once.
What was measured:
[1] = system: GB8 virus in JM cells; assay: Virus infection of JM cells with GB8 in the presence of test compounds: syncytia and P24 (Example II); conditions: Table II; for SYNCYTIA % / P24 %: % of control; for SYNCYTIA %: 2880 min; for P24 %: 5760 min
Procedure: Virus infection of JM cells was carried out in the presence of different concentrations of test compounds. JM cells (1×10^5) and 50-100 syncytial forming units of virus (GB8) were added to duplicate wells of a tissue culture plate containing 1 mL volumes of growth medium with or without drug. The plate was incubated for 2 days at 37° C. and then scored for the presence of syncytia. At the same time the cells were washed and the growth medium replaced. After a further two days incubation, the cell free supernatant fluids were harvested and assayed for levels of P24 viral core antigen using the Coulter™ HIV Antigen assay.

[2] = system: HIV strain RF; assay: Ability to prevent virus-induced cell death using MT4 cells and strain RF (Example III); type: cell-based; conditions: MT4 cells, 7 days, MTT, 10080 min
Procedure: (§1) Various oligomers were dissolved in RPMI and were then assayed for anti-HIV activity by making doubling dilutions of the solutions across a 96 well microtitre plate. To each well were then added 5×10^4 cells and 100 TCID50 of virus and the plates incubated at 37° C. for 7 days. MTT was added to each well and the plates incubated for a further 2 hours. The blue formazan crystals were dissolved using acidic isopropanol, and the absorbance measured at 540 nm.

[3] = system: MT4 cells; assay: Toxicity to MT4 cells (TD50, Table IV, MTT); type: cell-based; conditions: MT4 cells, 7 days, MTT
Procedure: as §1

[4] = system: HIV-I (GB8); assay: Pretreatment of JM cells and block of HIV-I (GB8) infection (Example IV); conditions: pretreated overnight at 20 μg/mL; for MEAN SYNCYTIA: 2 days; for P24 % / SYNCYTIA %: % of control, 2880 min
Procedure: JM cells were pretreated overnight at 37° C. with different compounds at 20 μg/mL or left untreated. The cells were washed 3 times in RPMI medium and then infected with HIV-I (GB8) for 2 hours at room temperature. The cells were again washed 3 times in RPMI medium and resuspended in fresh medium prior to being distributed into duplicate wells and incubated at 37° C. After 2 days syncytia were scored and the cell free supernatant fluid harvested and assayed for P24 viral core antigen using the Coulter™ HIV antigen assay.

[5] = system: HIV-I (RF); assay: Effect of treating HIV-I (RF)-infected cells (C8166) 24 hours post-infection (Example V, Table VII); conditions: for P24 % CONTROL: 8640 min
Procedure: Cells were infected with strain RF or GB8 for 24 hours at 37° C. at a multiplicity of infection of 0.001. Cells were washed three times to remove residual virus and then replated into fresh growth medium. Cells were then treated for 24 and 48 hours post-infection (p.i.) with the indicated concentrations of test compounds. Syncytia and P24 antigen levels were determined on the indicated days p.i. by methods described before.

[6] = system: HIV-I (GB8); assay: Effect of treating HIV-I (GB8)-infected cells (JM) 48 hours post-infection (Example V, Table VIII); type: cell-based; conditions: for P24 / P24 % CONTROL: day 6 p.i.
[7] = system: HIV-I, GB8; assay: Ability to prevent syncytia formation and expression of P24 viral core antigen using JM cells and GB8 virus strain (Example I); type: cell-based; conditions: for P24 % CONTROL: 4320 min; for SYNCYTIA: after 3 days
Procedure: The virus was first incubated with an oligomer for 15 minutes and then the cells were added. After 2 hours adsorption, the virus innoculum was removed and the cells were washed three times to remove traces of input virus. Antiviral activity was determined after 3 days incubation by plotting the mean number of syncytia found in quadruple cultures against log10 concentration of anionic polymer or of other test compounds. The potency of an oligomer was also measured by assaying viral core antigen (P24 test-Abbott) in the supernatant fluid. Heparin, dextran sulfate, rs CD4, ATZ and/or ddC data, when included in any of the following Tables, are provided as positive controls.

[8] = system: HIV-I (GB8); assay: Effect of treating HIV-I (GB8)-infected cells (JM) 24 hours post-infection (Example V, Table VI); type: cell-based; conditions: for P24 % CONTROL: 8640 min
[9] = 0.62 μM, addition 24 hours p.i.
[10] = 1.25 μM, addition 24 hours p.i.
[11] = 1.2 μM, addition 0 hours p.i., single wells
[12] = 0.31 μM, addition 24 hours p.i.

poly[imino(2,5-disulfo-1,4-phenylene)iminocarbonyl], alpha-{[(4-methylphenyl)amino]carbonyl}-omega-[(4-methylphenyl)amino]- [Example 3A]
SYNCYTIA (2 DAYS) MEAN ([1]; 0.6 μg/mL): 51
SYNCYTIA % ([1]; 0.6 μg/mL): 120%
P24 ([1]; 1.25 μg/mL): 4.3 × 10^5 units/mL
SYNCYTIA (2 DAYS) MEAN ([1]; 1.25 μg/mL): 20
SYNCYTIA % ([1]; 1.25 μg/mL): 48%
P24 % ([1]; 1.25 μg/mL): 100%
P24 ([1]; 2.5 μg/mL): 2.5 × 10^5 units/mL
SYNCYTIA (2 DAYS) MEAN ([1]; 2.5 μg/mL): 38
SYNCYTIA % ([1]; 2.5 μg/mL): 90%
P24 % ([1]; 2.5 μg/mL): 69%
P24 ([1]; 5 μg/mL): 3.6 × 10^5 units/mL
SYNCYTIA (2 DAYS) MEAN ([1]; 5 μg/mL): 15
SYNCYTIA % ([1]; 5 μg/mL): 36%
P24 % ([1]; 5 μg/mL): 100%
P24 ([1]; 10 μg/mL): 4.1 × 10^4 units/mL
SYNCYTIA (2 DAYS) MEAN ([1]; 10 μg/mL): 3
SYNCYTIA % ([1]; 10 μg/mL): 7%
P24 % ([1]; 10 μg/mL): 11%
SYNCYTIA (2 DAYS) MEAN ([1]; 20 μg/mL): 5
SYNCYTIA % ([1]; 20 μg/mL): 12%
ED50 [2]: > 10 µg/mL
TD50 [3]: > 100 µg/mL
P24 [4]: 26880 pg/mL
MEAN SYNCYTIA [4]: 153
P24 % [4]: 95%
SYNCYTIA % [4]: 129%

poly{imino[2,2'-disulfo(1,1'-biphenyl)-4,4'-diyl]iminocarbonyl}, alpha-{[(4-methylphenyl)amino]carbonyl}-omega[(4-methylphenyl)amino]- [Example 1A]
SYNCYTIA (2 DAYS) MEAN ([1]; 0.01 μg/mL): 60
SYNCYTIA % ([1]; 0.01 μg/mL): 143%
P24 ([1]; 0.03 μg/mL): 4.3 × 10^5 units/mL
SYNCYTIA (2 DAYS) MEAN ([1]; 0.03 μg/mL): 52
SYNCYTIA % ([1]; 0.03 μg/mL): 123%
P24 % ([1]; 0.03 μg/mL): 100%
P24 ([1]; 0.1 μg/mL): 4.0 × 10^5 units/mL
SYNCYTIA (2 DAYS) MEAN ([1]; 0.1 μg/mL): 25
SYNCYTIA % ([1]; 0.1 μg/mL): 58%
P24 % ([1]; 0.1 μg/mL): 100%
P24 ([1]; 0.3 μg/mL): 4.0 × 10^4 units/mL
SYNCYTIA (2 DAYS) MEAN ([1]; 0.3 μg/mL): 14
SYNCYTIA % ([1]; 0.3 μg/mL): 33%
P24 % ([1]; 0.3 μg/mL): 11%
P24 ([1]; 1 μg/mL): 9.1 × 10^3 units/mL
SYNCYTIA (2 DAYS) MEAN ([1]; 1 μg/mL): 0
SYNCYTIA % ([1]; 1 μg/mL): 0%
P24 % ([1]; 1 μg/mL): 3%
SYNCYTIA (2 DAYS) MEAN ([1]; 3 μg/mL): 0
SYNCYTIA % ([1]; 3 μg/mL): 0%
SYNCYTIA (2 DAYS) MEAN ([1]; 10 μg/mL): 0
SYNCYTIA % ([1]; 10 μg/mL): 0%
P24 DAY 6 p.i. [5, 9]: 700000 pg/mL
P24 % CONTROL [5, 9]: 74%
P24 DAY 6 p.i. [5, 10]: 1.5e+06 pg/mL
SYNCYTIA/WELL DAY 2 [5, 10]: 0
P24 % CONTROL [5, 10]: 100%
SYNCYTIA/WELL DAY 2 ([5]; 2.5 μM, addition 24 hours p.i.): 0
SYNCYTIA/WELL DAY 3 ([5]; 2.5 μM, addition 24 hours p.i.): 0
P24 % CONTROL ([5]; 2.5 μM, addition 24 hours p.i.): 10.2%
P24 DAY 6 p.i. ([5]; 5 μM, addition 24 hours p.i.): 9300 pg/mL
SYNCYTIA/WELL DAY 2 ([5]; 5 μM, addition 24 hours p.i.): 0
SYNCYTIA/WELL DAY 3 ([5]; 5 μM, addition 24 hours p.i.): 0
P24 % CONTROL ([5]; 5 μM, addition 24 hours p.i.): 1.0%
P24 DAY 6 p.i. ([5]; 10 μM, addition 0 hours p.i.): 16000 pg/mL
SYNCYTIA/WELL DAY 2 ([5]; 10 μM, addition 0 hours p.i.): 0
SYNCYTIA/WELL DAY 3 ([5]; 10 μM, addition 0 hours p.i.): 0
P24 % CONTROL ([5]; 10 μM, addition 0 hours p.i.): 1.7%
P24 DAY 6 p.i. ([5]; 10 μM, addition 24 hours p.i.): 9200 pg/mL
SYNCYTIA/WELL DAY 2 ([5]; 10 μM, addition 24 hours p.i.): 0
SYNCYTIA/WELL DAY 3 ([5]; 10 μM, addition 24 hours p.i.): 0
P24 % CONTROL ([5]; 10 μM, addition 24 hours p.i.): 1.0%
P24 ([6]; 1.2 μM, addition 0 hours p.i.): 450 pg/mL
P24 % CONTROL ([6]; 1.2 μM, addition 0 hours p.i.): 0.41%
SYNCYTIA/WELL DAY 3 p.i. [6, 11]: 0 SYNCYTIA/WELL
SYNCYTIA/WELL DAY 6 p.i. [6, 11]: 0 SYNCYTIA/WELL
P24 ([6]; 1.2 μM, addition 48 hours p.i.): 21000 pg/mL
P24 % CONTROL ([6]; 1.2 μM, addition 48 hours p.i.): 19.0%
SYNCYTIA/WELL DAY 3 p.i. ([6]; 1.2 μM, addition 48 hours p.i., single wells): 19 SYNCYTIA/WELL and 10 SYNCYTIA/WELL and 12 SYNCYTIA/WELL
effect on cells having preestablished infections ([6]; summary of studies): cleared cultures of syncytia, stabilized the infection and reduced virus antigen levels
ED50 [2]: 1.6 µg/mL
P24 ([7]; 0.6 μg/mL): 37355 pg/mL
P24 % CONTROL ([7]; 0.6 μg/mL): 0.13%
P24 ([7]; 1.25 μg/mL): 541 pg/mL
P24 % CONTROL ([7]; 1.25 μg/mL): < 0.1%
SYNCYTIA ([7]; 1.25 μg/mL): 0
P24 ([7]; 2.5 μg/mL): 96 pg/mL
P24 % CONTROL ([7]; 2.5 μg/mL): < 0.1%
SYNCYTIA ([7]; 2.5 μg/mL): 0
SYNCYTIA ([7]; 5.0 μg/mL): 0
P24 DAY 6 p.i. [8, 12]: 165000 pg/mL
SYNCYTIA/WELL DAY 3 p.i. [8, 12]: > 50 SYNCYTIA/WELL
P24 % CONTROL [8, 12]: 16.0%
P24 DAY 6 p.i. [8, 9]: 56000 pg/mL
SYNCYTIA/WELL DAY 3 p.i. [8, 9]: < 20 SYNCYTIA/WELL
P24 % CONTROL [8, 9]: 5.4%
P24 DAY 6 p.i. ([8]; 1.2 μM, addition 24 hours p.i.): 15000 pg/mL
SYNCYTIA/WELL DAY 3 p.i. ([8]; 1.2 μM, addition 24 hours p.i.): < 10 SYNCYTIA/WELL
P24 % CONTROL ([8]; 1.2 μM, addition 24 hours p.i.): 1.5%
P24 DAY 6 p.i. ([8]; 2.5 μM, addition 0 hours p.i.): 420 pg/mL
SYNCYTIA/WELL DAY 3 p.i. ([8]; 2.5 μM, addition 0 hours p.i.): 0 SYNCYTIA/WELL
P24 % CONTROL ([8]; 2.5 μM, addition 0 hours p.i.): 0.04%
P24 DAY 6 p.i. ([8]; 2.5 μM, addition 24 hours p.i.): 12100 pg/mL
SYNCYTIA/WELL DAY 3 p.i. ([8]; 2.5 μM, addition 24 hours p.i.): 0 SYNCYTIA/WELL
P24 % CONTROL ([8]; 2.5 μM, addition 24 hours p.i.): 1.2%
TD50 [3]: > 100 µg/mL
P24 [4]: 2623 pg/mL
MEAN SYNCYTIA [4]: 14
P24 % [4]: 9%
SYNCYTIA % [4]: 12%

poly{imino[2,2'-disulfo(1,1'-biphenyl)-4,4'-diyl]iminocarbonyl}, alpha-{[(4-methylphenyl)amino]carbonyl}-omega[(4-methylphenyl)amino]- [Example 1B]
SYNCYTIA (2 DAYS) MEAN ([1]; 0.01 μg/mL): 47
SYNCYTIA % ([1]; 0.01 μg/mL): 112%
P24 ([1]; 0.03 μg/mL): 4.1 × 10^5 units/mL
SYNCYTIA (2 DAYS) MEAN ([1]; 0.03 μg/mL): 42
SYNCYTIA % ([1]; 0.03 μg/mL): 100%
P24 % ([1]; 0.03 μg/mL): 100%
P24 ([1]; 0.1 μg/mL): 4.4 × 10^5 units/mL
SYNCYTIA (2 DAYS) MEAN ([1]; 0.1 μg/mL): 25
SYNCYTIA % ([1]; 0.1 μg/mL): 58%
P24 % ([1]; 0.1 μg/mL): 100%
P24 ([1]; 0.3 μg/mL): 3.8 × 10^4 units/mL
SYNCYTIA (2 DAYS) MEAN ([1]; 0.3 μg/mL): 1
SYNCYTIA % ([1]; 0.3 μg/mL): 2%
P24 % ([1]; 0.3 μg/mL): 11%
P24 ([1]; 1 μg/mL): 1.6 × 10^3 units/mL
SYNCYTIA (2 DAYS) MEAN ([1]; 1 μg/mL): 0
SYNCYTIA % ([1]; 1 μg/mL): 0%
P24 % ([1]; 1 μg/mL): 0.4%
SYNCYTIA (2 DAYS) MEAN ([1]; 3 μg/mL): 0
SYNCYTIA % ([1]; 3 μg/mL): 0%
SYNCYTIA (2 DAYS) MEAN ([1]; 10 μg/mL): 0
SYNCYTIA % ([1]; 10 μg/mL): 0%
ED50 [2]: 2.2 µg/mL
P24 ([7]; 0.6 μg/mL): 32820 pg/mL
P24 % CONTROL ([7]; 0.6 μg/mL): 0.1%
P24 ([7]; 1.25 μg/mL): 35890 pg/mL
P24 % CONTROL ([7]; 1.25 μg/mL): < 0.1%
P24 ([7]; 2.5 μg/mL): 365 pg/mL
P24 % CONTROL ([7]; 2.5 μg/mL): < 0.1%
SYNCYTIA ([7]; 2.5 μg/mL): 0
P24 ([7]; 5.0 μg/mL): 465 pg/mL
P24 % CONTROL ([7]; 5.0 μg/mL): < 0.1%
SYNCYTIA ([7]; 5.0 μg/mL): 0
TD50 [3]: > 100 µg/mL
P24 [4]: 2790 pg/mL
MEAN SYNCYTIA [4]: 52
P24 % [4]: 10%
SYNCYTIA % [4]: 44%
